Experimental data: US5135912A, “Natriuretic peptides from the pituitary prohormone proopiomelanocortin” (Tosoh Corporation, priority 1988, dated 1992)
Where no end group is shown, it is not given here.

Test system: rats
Assay: Natriuretic and diuretic effect of intravenous bolus injection in anesthetized rats
Format: in vivo, rat
Details: 30 to 60 min after minus 30 to 0 min before injection, mean ± SEM
Experimental: Diuretic and natriuretic activity of the peptides of this invention is assayed in male rats of the Sprague-Dawley or Long-Evans strains. Peptide or vehicle (for control purposes) is administered by intravenous bolus injection or by continuous infusion into one renal artery of animals anesthetized for the duration of the experiment, or by intramuscular or subcutaneous injection into animals only briefly anesthetized with ether and subsequently conscious and freely moving until completion of the experiment. Timed urine samples are collected for determination of volume and measurement of sodium and potassium concentration by flame photometry. Details of each method are given in Examples II to IV below.
The natriuretic and diuretic effect of intravenous bolus injection of peptides F15R, G13R and E19R was tested in male Sprague-Dawley or Long-Evans rats weighing 300-400 g. The animals were given Inactin®, 120 mg per kg body weight i.p. under light ether anesthesia. Following placement of a tracheal cannula, the right femoral vein was catheterized for infusion of 5% bovine serum albumin at a dose of 0.4% of body weight and at a rate of 6.0 ml/hour. Subsequently, normal saline was infused for the duration of the experiment at a rate of 2.0 ml/hour. The bladder was exposed through an abdominal incision and catheterized for urine collection. Serial 15-minute urine collections in preweighed vials were begun after a recovery period of 45 minutes. After collection of four control samples, the peptide in 0.1 ml of vehicle was injected into the femoral vein over a period of 1 minute and 6 to 10 further urine samples were collected. Urine volume was determined by weighing and urine sodium and potassium were assayed by flame photometry. All peptides produced natriuresis and diuresis reaching peak levels usually between 30 and 60 minutes after injection. The difference between urine volume and sodium excretion observed from 30 to 60 minutes after and 30 to 0 minutes before peptide administration was calculated for each rat as a measure of activity.

GNGDEQPLTPNPR [G13R]
Change in Sodium Excretion (i.v. bolus 0.100 nmol): 8.39 ± 4.41 μeq/30 minutes | Change in Urine Volume (i.v. bolus 0.100 nmol): 80.0 ± 29.2 μl/30 minutes | Change in Sodium Excretion (i.v. bolus 1.00 nmol): 12.48 ± 6.22 μeq/30 minutes | Change in Urine Volume (i.v. bolus 1.00 nmol): 62.0 ± 17.2 μl/30 minutes
